# Experimental data from patent US20260070927A1, “INDAZOLE MACROCYCLES FOR THE TREATMENT OF AUTOIMMUNE DISEASE” (Hoffmann-La Roche Inc., priority 2022, published 2026).
# pIC50: −log10 of the molar value.
# How the values were obtained:
# STING (IFN-β in hPBMC) = experiment: hPBMC cytokine functional assay (IFN-β decrease after Baculovirus stimulation); assay type: cell-based; conditions: Homo sapiens, Baculovirus MOI 40, 24 hours, read-out: hPBMC_IC50
# Method: The inhibition of STING by compounds could be measured by the decrease of IFN-β in hPBMC, which is stimulated by a double stranded DNA virus Baculoviurs (Purchased from Genescript, pCMV-Dest Vector virus generation P2 BV stock virus, Sf-900 II medium with 5% FBS, Lot C9835DK230-2/P4DL001). Frozen hPBMC cells (purchased from Stemcell Technologies, cat number is 70025, Lot 191070803C) were thawed at 37° C. water bath, then cells were re-suspended in 50 ml tube using 20 ml Cell culture medium, and then centrifuged for 5 min at 2000 rpm before the supernatant was removed carefully. The cells were re-suspended in culture medium (RPMI-1640 with 1.5 g/L NaHCO3, 4.5 g/L glucose, 10 mM HEPES and 1 mM Na-pyruvate, 10% HI-FBS); 65 μL of the cell suspension was dispensed into 384 well plate (70K cells/well) by Multidrop Combi with at least 3 hours incubation at 37° C., 5% CO2 cell incubator.
# Then 4 μL of compound solution per well (final 0.5% DMSO) was transferred by Agilent Bravo followed by infection with 11 μL of Baculovirus at a final MOI of 40. The level of IFN-β secreted in the supernatant of hPBMC was determined after 24 hours of incubation at 37° C. cell incubator by human IFN-β HTRF assay (Cisbio, cat: 62HIFNBPEH) following the manufacture's instruction. CellTiter-Glo kit (Promega, cat: G7573) was applied for the cell viability evaluation using Envision.
# [1] = molecular target: human stimulator of interferon genes (STING) (139-379) (Homo sapiens (Human), UniProt Q86WV6); experiment: Microliter plate-based TR-FRET competition-binding assay for binders of STING; conditions: Alexa488 probe, read-out: FRET_IC50
# Method: This is the competition-binding assay to test the compounds' potency to the C-terminal Domain (CTD) and ligand-binding domain of human stimulator of interferon genes (STING). STING (139-379, Q86WV6, http://www.uniprot.org/uniprot) recombinant protein (in 20 mM Tris, 150 mM NaCl, pH 8.0, and expression in Escherichia coli (E. coli) BL21 (DE3)) with a C-terminal flag-tag was employed for the assay. When Alexa-488 labeled active site probe (refer to patent WO2017/175156 A1) bounds to STING (139-379), it accepts the 485 nm emission from Tb-M2-Flag-STING and results in an increase in fluorescence at 520 nm. Compounds that compete for the probe-binding site will reduce 520 nm signal. The assay was run in proxiplate-384 plus (PerkinElmer, cat: 60150300) containing of 2.5 nM STING, 2.5 nM M2-Tb (Cisbio, 61FG2TLA, Lot: 17 A) and 250 nM Alexa488 probe. Plates were centrifuged for 1 min at 1000 rpm, incubated for 30 min at room temperature, and then measured the dual fluorescence emission at 520 nm/485 nM following 320 nm laser excitation on an Envision plate reader (Perkin-Elmer). The compounds' effect on the STING binding is detected by measuring ratiometric fluorescence from time-resolved FRET. The percentage of inhibition of at each compound concentration is calculated on the basis of their changes of TR-FRET efficiency relative to the change of TR-FRET caused by positive control 2′3′cGAMP (Sigma, cat: SML1229).
# Chain of human stimulator of interferon genes (STING) (139-379) (Q86WV6 139-379): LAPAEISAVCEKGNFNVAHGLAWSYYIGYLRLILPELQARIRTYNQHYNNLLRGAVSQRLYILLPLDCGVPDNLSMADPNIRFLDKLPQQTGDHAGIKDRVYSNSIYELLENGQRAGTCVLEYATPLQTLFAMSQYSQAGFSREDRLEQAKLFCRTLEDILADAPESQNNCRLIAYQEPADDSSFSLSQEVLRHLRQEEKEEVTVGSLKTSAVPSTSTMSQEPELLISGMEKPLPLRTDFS
SMILES,pIC50 (STING (IFN-β in hPBMC)),pIC50 [1]
"COc1cc2nc(c1)-c1cccc3nn(C)c(c13)CCCN(C)C(=O)[C@@H]1C[C@@H](CN1c1ncnc3c1cnn3-c1ccc(F)cc1F)N2 [Example 13, (8S,11S)-10-[1-(2,4-difluorophenyl)pyrazolo[3,4-d]pyrimidin-4-yl]-4-methoxy-13,18-dimethyl-7,10,13,18,19,26-hexazapentacyclo[15.6.1.1^2,6.1^8,11.0^20,24]hexacosa-1(23),2,4,6(26),17(24),19,21-heptaen-12-one]",6.65,8.33
"Cn1nc2cccc3c2c1CCCN(CCCc1ccccc1)C(=O)[C@@H]1C[C@@H](CN1c1ncnc2c1cnn2-c1ccc(F)cc1F)Oc1cccc-3n1 [Example 41, (8S,11S)-10-[1-(2,4-difluorophenyl)pyrazolo[3,4-d]pyrimidin-4-yl]-18-methyl-13-(3-phenylpropyl)-7-oxa-10,13,18,19,26-pentazapentacyclo[15.6.1.1^2,6.1^8,11.0^20,24]hexacosa-1(23),2(26),3,5,17(24),19,21-heptaen-12-one]",7.32,8.68
"Cn1nc2cccc3c2c1CCCN(CCCO)C(=O)[C@@H]1C[C@@H](CN1c1ncnc2c1cnn2-c1ccc(F)cc1F)Oc1cccc-3c1 [Example 26, (8S,11S)-10-[1-(2,4-difluorophenyl)pyrazolo[3,4-d]pyrimidin-4-yl]-13-(3-hydroxypropyl)-18-methyl-7-oxa-10,13,18,19-tetrazapentacyclo[15.6.1.1^2,6.1^8,11.0^20,24]hexacosa-1(23),2(26),3,5,17(24),19,21-heptaen-12-one]",6.99,8.66
"Cn1nc2cccc3c2c1CCCN(CC1CC1)C(=O)[C@@H]1C[C@@H](CN1c1ncnc2c1cnn2-c1ccc(F)cc1F)Oc1cccc-3c1 [Example 15, (8S,11S)-13-(cyclopropylmethyl)-10-[1-(2,4-difluorophenyl)pyrazolo[3,4-d]pyrimidin-4-yl]-18-methyl-7-oxa-10,13,18,19-tetrazapentacyclo[15.6.1.1^2,6.1^8,11.0^20,24]hexacosa-1(23),2(26),3,5,17(24),19,21-heptaen-12-one]",6.85,8.80
"COc1cc2nc(c1)-c1cccc3nn(C)c(c13)CCCN(C)C(=O)[C@@H]1C[C@@H](CN1c1ncnc3c1cnn3-c1ccc(F)cc1OC)N2 [Example 14, (8S,11S)-10-[1-(4-fluoro-2-methoxy-phenyl)pyrazolo[3,4-d]pyrimidin-4-yl]-4-methoxy-13,18-dimethyl-7,10,13,18,19,26-hexazapentacyclo[15.6.1.1^2,6.1^8,11.0^20,24]hexacosa-1(23),2,4,6(26),17(24),19,21-heptaen-12-one]",6.59,8.32
"CN1CCCc2c3c(cccc3nn2C)-c2cccc(c2)O[C@H]2C[C@@H](C1=O)N(c1ncnc3c1cnn3-c1ccc(F)cc1F)C2 [Example 2, (8S,11S)-10-[1-(2,4-difluorophenyl)pyrazolo[3,4-d]pyrimidin-4-yl]-13,18-dimethyl-7-oxa-10,13,18,19-tetrazapentacyclo[15.6.1.1^2,6.1^8,11.0^20,24]hexacosa-1(23),2(26),3,5,17(24),19,21-heptaen-12-one]",6.23,8.57
"CC(=O)N1CCN(CCCN2CCCc3c4c(cccc4nn3C)-c3cccc(c3)O[C@H]3C[C@@H](C2=O)N(c2ncnc4c2cnn4-c2ccc(F)cc2F)C3)CC1 [Example 33, (8S,11S)-13-[3-(4-acetylpiperazin-1-yl)propyl]-10-[1-(2,4-difluorophenyl)pyrazolo[3,4-d]pyrimidin-4-yl]-18-methyl-7-oxa-10,13,18,19-tetrazapentacyclo[15.6.1.1^2,6.1^8,11.0^20,24]hexacosa-1(23),2(26),3,5,17(24),19,21-heptaen-12-one]",6.09,8.77
"Cn1nc2cccc3c2c1CCCN(CCOCc1ccncc1)C(=O)[C@@H]1C[C@@H](CN1c1ncnc2c1cnn2-c1ccc(F)cc1F)Oc1cccc-3c1 [Example 28, (8S,11S)-10-[1-(2,4-difluorophenyl)pyrazolo[3,4-d]pyrimidin-4-yl]-18-methyl-13-[2-(4-pyridylmethoxy)ethyl]-7-oxa-10,13,18,19-tetrazapentacyclo[15.6.1.1^2,6.1^8,11.0^20,24]hexacosa-1(23),2(26),3,5,17(24),19,21-heptaen-12-one]",6.74,9.70
"CN1CCCc2c3c(cccc3nn2C)-c2cccc(n2)N[C@H]2C[C@@H](C1=O)N(c1ncnc3c1cnn3-c1ccc(F)cc1F)C2 [Example 3, (8S,11S)-10-[1-(2,4-difluorophenyl)pyrazolo[3,4-d]pyrimidin-4-yl]-13,18-dimethyl-7,10,13,18,19,26-hexazapentacyclo[15.6.1.1^2,6.1^8,11.0^20,24]hexacosa-1(23),2(26),3,5,17(24),19,21-heptaen-12-one]",6.54,9.22
"Cn1nc2cc(F)cc3c2c1CCCN(CCN1CCOCC1)C(=O)[C@@H]1C[C@@H](CN1c1ncnc2c1cnn2-c1ccc(F)cc1F)Oc1cccc-3c1 [Example 25, (8S,11S)-10-[1-(2,4-difluorophenyl)pyrazolo[3,4-d]pyrimidin-4-yl]-22-fluoro-18-methyl-13-(2-morpholinoethyl)-7-oxa-10,13,18,19-tetrazapentacyclo[15.6.1.1^2,6.1^8,11.0^20,24]hexacosa-1(23),2(26),3,5,17(24),19,21-heptaen-12-one]",6.26,7.74
"Cn1nc2cccc3c2c1CCCN(CCCc1ccccc1)C(=O)[C@@H]1C[C@@H](CN1c1ncnc2c1cnn2-c1ccc(F)cc1F)Oc1cccc-3c1 [Example 29, (8S,11S)-10-[1-(2,4-difluorophenyl)pyrazolo[3,4-d]pyrimidin-4-yl]-18-methyl-13-(3-phenylpropyl)-7-oxa-10,13,18,19-tetrazapentacyclo[15.6.1.1^2,6.1^8,11.0^20,24]hexacosa-1(23),2(26),3,5,17(24),19,21-heptaen-12-one]",7.51,8.92
"Cn1nc2cccc3c2c1CCCN(CCCN1CCN(S(C)(=O)=O)CC1)C(=O)[C@@H]1C[C@@H](CN1c1ncnc2c1cnn2-c1ccc(F)cc1F)Oc1cccc-3c1 [Example 35, (8S,11S)-10-[1-(2,4-difluorophenyl)pyrazolo[3,4-d]pyrimidin-4-yl]-18-methyl-13-[3-(4-methylsulfonylpiperazin-1-yl)propyl]-7-oxa-10,13,18,19-tetrazapentacyclo[15.6.1.1^2,6.1^8,11.0^20,24]hexacosa-1(23),2(26),3,5,17(24),19,21-heptaen-12-one]",6.74,9.70
"COCCN1CCCc2c3c(cccc3nn2C)-c2cccc(c2)O[C@H]2C[C@@H](C1=O)N(c1ncnc3c1cnn3-c1ccc(F)cc1F)C2 [Example 21, (8S,11S)-10-[1-(2,4-difluorophenyl)pyrazolo[3,4-d]pyrimidin-4-yl]-13-(2-methoxyethyl)-18-methyl-7-oxa-10,13,18,19-tetrazapentacyclo[15.6.1.1^2,6.1^8,11.0^20,24]hexacosa-1(23),2(26),3,5,17(24),19,21-heptaen-12-one]",6.42,8.70
